Test results taken from patent US9433573B2, “Microfabricated nanopore device for sustained release of therapeutic agent” (Delpor, Inc., priority 2001, dated 2016).

What was measured:
[1] = In vitro release of 125I-lysozyme from nanopore membrane implants
Text: (§1) Lysozyme, an enzyme with a molecular weight intermediate between that of glucose and albumin (MW 12,000 Daltons) was used to measure diffusion kinetics through nanopore membranes both in vitro and in vivo. Radiolabeled (^125-I) lysozyme was obtained from ICN Biochemicals. Unlabeled lysozyme was obtained from Sigma Chemical Corp. Radiolabeled lysozyme was admixed with unlabeled lysozyme and loaded into implants as described above for albumin. In vitro release rates for three size membranes are plotted in FIG. 8. Lysozyme release rates are zero-order for membranes pore sizes of 13 nm and 49 nm.

[2] = parameters: species or system rats; conditions: rat, in vivo, sc, 80 ug
Text: as §1
Blood levels of lysozyme in groups of three rats given either a single subcutaneous bolus of 80 μg or after implantation of a nanopore implant device designed to release lysozyme at a rate of 17 μg/day are shown in FIG. 9.

lysozyme
lysozyme release rates (kinetics) ([1]; membrane pore sizes of 13 nm and 49 nm, in vitro): zero-order | flux of lysozyme versus initial concentration ([1]; pore size of 13 nm or less, in vitro (data not shown)): independent of initial concentration | apparent half-life in blood stream [2]: less than several days
